According to patent US5849690A, “Anti-aggregatory peptides” (SmithKline Beecham Corporation, priority 1992, dated 1998):
Positions of bridges follow the written chain, without caps; N, C: chain ends. Non-standard residues stand in square brackets, D forms with d. Residues, ends and D or L forms follow the SMILES beside them.

Biological target: T1, Platelet rich plasma, PRP (Canis lupus familiaris, UniProt A0A8I3N5G5+A0A8I3PMU9)
T1 sequence (A0A8I3N5G5 1-1047): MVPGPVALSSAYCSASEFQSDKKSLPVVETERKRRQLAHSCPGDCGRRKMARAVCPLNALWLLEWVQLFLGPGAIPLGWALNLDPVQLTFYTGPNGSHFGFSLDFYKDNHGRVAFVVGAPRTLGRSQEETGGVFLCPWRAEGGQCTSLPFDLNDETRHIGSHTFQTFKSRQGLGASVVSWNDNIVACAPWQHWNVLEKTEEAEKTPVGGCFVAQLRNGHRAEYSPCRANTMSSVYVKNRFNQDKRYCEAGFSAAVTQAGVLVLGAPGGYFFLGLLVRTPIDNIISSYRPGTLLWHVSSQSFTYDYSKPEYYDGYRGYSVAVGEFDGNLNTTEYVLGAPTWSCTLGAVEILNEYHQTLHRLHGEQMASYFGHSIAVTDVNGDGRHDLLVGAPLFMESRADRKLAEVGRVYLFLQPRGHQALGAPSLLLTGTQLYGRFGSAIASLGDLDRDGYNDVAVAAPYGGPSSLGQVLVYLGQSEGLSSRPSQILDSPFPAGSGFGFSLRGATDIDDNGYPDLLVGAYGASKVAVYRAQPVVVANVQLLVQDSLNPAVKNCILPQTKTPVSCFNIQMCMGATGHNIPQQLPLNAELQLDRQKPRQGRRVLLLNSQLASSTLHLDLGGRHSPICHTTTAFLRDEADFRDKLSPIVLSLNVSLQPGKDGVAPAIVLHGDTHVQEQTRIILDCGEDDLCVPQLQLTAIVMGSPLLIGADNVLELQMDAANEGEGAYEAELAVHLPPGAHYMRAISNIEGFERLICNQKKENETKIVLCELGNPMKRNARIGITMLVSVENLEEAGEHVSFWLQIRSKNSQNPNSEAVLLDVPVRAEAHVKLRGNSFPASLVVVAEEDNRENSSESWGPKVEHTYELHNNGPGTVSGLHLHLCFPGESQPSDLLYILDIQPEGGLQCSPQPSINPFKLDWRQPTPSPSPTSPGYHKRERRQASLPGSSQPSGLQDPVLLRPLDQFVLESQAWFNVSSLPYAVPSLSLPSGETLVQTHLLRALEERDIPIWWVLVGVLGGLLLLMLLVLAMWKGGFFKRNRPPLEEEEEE
T1 sequence (A0A8I3PMU9 1-919): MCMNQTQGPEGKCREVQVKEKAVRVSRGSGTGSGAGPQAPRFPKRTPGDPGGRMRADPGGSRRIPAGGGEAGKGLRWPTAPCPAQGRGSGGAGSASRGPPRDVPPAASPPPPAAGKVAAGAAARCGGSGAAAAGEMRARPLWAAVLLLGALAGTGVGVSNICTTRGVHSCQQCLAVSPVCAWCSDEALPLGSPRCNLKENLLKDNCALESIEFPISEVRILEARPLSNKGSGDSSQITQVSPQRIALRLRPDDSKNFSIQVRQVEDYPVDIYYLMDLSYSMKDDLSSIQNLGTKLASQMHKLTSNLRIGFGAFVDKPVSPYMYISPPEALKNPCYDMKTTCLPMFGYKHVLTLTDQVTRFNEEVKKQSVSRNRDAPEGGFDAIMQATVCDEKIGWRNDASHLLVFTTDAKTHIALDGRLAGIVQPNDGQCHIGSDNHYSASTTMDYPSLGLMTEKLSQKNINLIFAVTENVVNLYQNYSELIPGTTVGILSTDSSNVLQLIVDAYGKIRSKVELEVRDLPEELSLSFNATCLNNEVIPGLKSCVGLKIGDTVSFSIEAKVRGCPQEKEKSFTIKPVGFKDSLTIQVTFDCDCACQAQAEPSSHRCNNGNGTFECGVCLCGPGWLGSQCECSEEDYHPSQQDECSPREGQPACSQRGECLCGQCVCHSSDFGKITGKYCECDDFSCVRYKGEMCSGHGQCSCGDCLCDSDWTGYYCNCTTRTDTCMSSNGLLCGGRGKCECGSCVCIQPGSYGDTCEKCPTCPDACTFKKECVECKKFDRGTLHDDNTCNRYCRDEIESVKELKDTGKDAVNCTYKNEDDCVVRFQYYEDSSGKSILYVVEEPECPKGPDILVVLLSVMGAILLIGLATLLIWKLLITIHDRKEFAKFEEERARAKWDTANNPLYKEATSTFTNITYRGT
Test: Inhibition of platelet aggregation, PRP/ADP
Format: cell-based
Conditions: dog platelet rich plasma, 2 μM ADP, peptide added 3 min. prior to agonist; read-out: Antiaggregatory Activity IC50, μM PRP/ADP
Description: Blood was collected (citrated to prevent coagulation) from, naive, adult mongrel dogs. Platelet rich plasma, PRP, was prepared by centrifugation at 150×g for 10 min. at room temperature. Washed platelets were prepared by centrifuging PRP at 800×g for 10 min. The cell pellet thus obtained was washed twice in Tyrode's buffer (pH 6.5) without Ca^2+ and resuspended in Tyrode's buffer (pH 7.4) containing 1.8 mM Ca^2+ at […]. Peptides were added 3 min. prior to the agonist in all assays of platelet aggregation. Final agonist concentrations were 0.1 unit/ml thrombin and 2 μM ADP (Sigma). Aggregation was monitored in a Chrono-Log Lumi-Aggregometer. Light transmittance 5 min. after addition of the agonist was used to calculate percent aggregation according to the formula % aggregation=[(90-CR).div.(90-10)]×100, where CR is the chart reading, 90 is the baseline, and 10 is the PRP blank reading. IC50 's were determined by plotting [% inhibition of aggregation] vs. [concentration of peptide]. Peptides were assayed at 200 μM and diluted sequentially by a factor of 2 to establish a suitable dose response curve.

Compound | IC50 [µM]
CC(=O)N[C@H]1CSSC[C@@H](C(N)=O)NC(=O)[C@H](Cc2ccc(O)cc2)NC(=O)[C@H](CC(=O)O)NC(=O)CNC(=O)[C@H](CCCNC(=N)N)N(C)C1=O [Example 18, N^α -Ac-Cyclo(S,S)Cys-MeArg-Gly-Asp-Tyr-Cys-NH2] (HELM PEPTIDE1{[ac].C.[meR].G.D.Y.C.[am]}$PEPTIDE1,PEPTIDE1,2:R3-7:R3$$$V2.0) | 1.49
CN(C=O)[C@@H](CCCNC(=N)N)C(=O)NCC(=O)N[C@@H](CC(=O)O)C(=O)N[C@@H](CO)C(N)=O [Example 38, N^α -Formyl-MeArg-Gly-Asp-Ser-NH2] (HELM PEPTIDE1{[O=C[*:2]].[meR].G.D.S.[am]}$$$$V2.0) | 6.9
CC(=O)N[C@H]1CSSC(C)(C)[C@@H](C(N)=O)NC(=O)[C@H](CC(=O)O)NC(=O)CNC(=O)[C@H](CCCNC(=N)N)N(C)C1=O [Example 14, N^α -Ac-Cyclo(S,S)Cys-MeArg-Gly-Asp-Pen-NH2] (HELM PEPTIDE1{[ac].C.[meR].G.D.[Pen].[am]}$PEPTIDE1,PEPTIDE1,2:R3-6:R3$$$V2.0) | 0.26
CC(=O)N[C@H]1CSSC(C)(C)[C@@H](C(N)=O)NC(=O)[C@H](CC(=O)O)NC(=O)CNC(=O)[C@H](CCCCN)NC1=O [Example 12, N^α -Ac-Cyclo(S,S)Cys-Lys-Gly-Asp-Pen-NH2] (HELM PEPTIDE1{[ac].C.K.G.D.[Pen].[am]}$PEPTIDE1,PEPTIDE1,2:R3-6:R3$$$V2.0) | 55.3
CC(=O)N[C@@H](CCCN=C(N)N)C(=O)NCC(=O)N[C@@H](CC(=O)O)C(=O)NCCc1ccccc1 [Example 34, N^α -Ac-Arg-Gly-Asp-NH-CH -CH2 -C6 H5] | 75.9
CC(=O)N[C@H]1CSSC(C)(C)[C@H](C(N)=O)NC(=O)[C@H](CC(=O)O)NC(=O)CNC(=O)[C@H](CCCNC(=N)N)NC1=O [Example 11, N^α -Ac-Cyclo(S,S)Cys-Arg-Gly-Asp-D-Pen-NH2] (HELM PEPTIDE1{[ac].C.R.G.D.[CC(C)(S[*:3])[C@@H](N[*:1])C(=O)[*:2]].[am]}$PEPTIDE1,PEPTIDE1,2:R3-6:R3$$$V2.0) | 20.3
CCN=C(NCC)NCCC[C@@H]1NC(=O)[C@@H](NC(C)=O)CSSC(C)(C)[C@@H](C(N)=O)NC(=O)[C@H](CC(=O)O)NC(=O)CNC1=O [Example 24, N^α -Ac-Cyclo(S,S)Cys-(Et2)Arg-Gly-Asp-Pen-NH2] (HELM PEPTIDE1{[ac].C.[CCN=C(NCC)NCCC[C@H](N[*:1])C(=O)[*:2]].G.D.[Pen].[am]}$PEPTIDE1,PEPTIDE1,2:R3-6:R3$$$V2.0) | 81.7
CC(=O)N[C@H]1CSSC(C)(C)[C@@H](C(N)=O)NC(=O)[C@H](CC(=O)O)NC(=O)CNC(=O)[C@H](CCCCNC(=N)N)NC1=O [Example 13, N^α -Ac-Cyclo(S,S)Cys-HArg-Gly-Asp-Pen-NH2] (HELM PEPTIDE1{[ac].C.[N=C(N)NCCCC[C@H](N[*:1])C(=O)[*:2]].G.D.[Pen].[am]}$PEPTIDE1,PEPTIDE1,2:R3-6:R3$$$V2.0) | 3.85
CCNC(=O)[C@H](CO)NC(=O)[C@H](CC(=O)O)NC(=O)CNC(=O)[C@H](CCCN=C(N)N)NC(C)=O [Example 15, N^α -Ac-Arg-Gly-Asp-Ser-NHEt] (HELM PEPTIDE1{[ac].R.G.D.S.[CCN[*:1]]}$$$$V2.0) | > 200
CC(=O)N[C@H]1CSSC(C)(C)[C@@H](C(N)=O)NC(=O)[C@H](CO)NC(=O)[C@H](CC(=O)O)NC(=O)CNC(=O)[C@H](CCCNC(=N)N)N(C)C1=O [Example 5, N^α -Ac-Cyclo(S,S)Cys-MeArg-Gly-Asp-Ser-Pen-NH2] (HELM PEPTIDE1{[ac].C.[meR].G.D.S.[Pen].[am]}$PEPTIDE1,PEPTIDE1,2:R3-7:R3$$$V2.0) | 1.3
N^α -Ac-Cyclo(S,S)Cys-MeArg-Gly-Asp-Cys-NH2 (Ac-C[MeArg]GDC-NH2; disulfide N-5) [Example 8] | 0.91
Gly-MeArg-Gly-Asp-Ser-NH2 (RGDS; N-terminal Gly-Me; C-terminal amide; printed: Arg-Gly-Asp-Ser-) [Example 39] | 12
